A short description of this data set: Apparent intrinsic clearance in human liver microsomes. In kind it is ADME, Microsome. The note with it: read-out: CLH(app).

A value given as a limit tells only on which side of the number the result lay.

For the molecule `CC[C@H](C)OC(=O)N1C2CC3CC1CC(C2)N3c1ncnc(Oc2cccnc2C)c1C`, the CLint scaled was over 30 mL/min/kg. In the case of `Cc1ncccc1Oc1ncnc(N2C3CC4CC2CC(C3)N4C(=O)OC2(C)CCC2)c1C` it was over 30 mL/min/kg.

Source of the values: ChEMBL document CHEMBL2311407, “Design and synthesis of diazatricyclodecane agonists of the G-protein-coupled receptor 119” (J Med Chem, 2013).
